# Tests used:
# [1] = tested on: Plasmodium falciparum 3D7 Strain; assay: Antiplasmodial SYBR Green I assay, chloroquine-sensitive 3D7 strain; format: cell-based
# [2] = tested on: Plasmodium falciparum W2 Strain; assay: microbe, parasite or virus in culture; format: cell-based
# HUVEC cells = details: human
structure (smiles),measurement,setting,value
"CCN(CC)CCCC(C)Nc1ccnc2cc(Cl)ccc12 (centres unmarked) [CQ, chloroquine, reference compound]",IC50,"[1]; Plasmodium falciparum, chloroquine-sensitive 3D7, 48 h incubation, SYBR Green I, read-out: IC50 ± SD, Plasmodium falciparum 3D7 Strain",22.4 ± 3.24 nM
same,IC50,"[2]; Plasmodium falciparum, W2, 48 h, read-out: IC50 ± SD, Plasmodium falciparum W2 Strain",134 ± 32.3 nM
O=C(COc1ccccc1)N1CCC(N(C(=O)COc2ccccc2)c2ccccc2)CC1 [Compound 10],Selectivity Index (3D7) =CC50/IC50,[1]; CC50 HUVEC / IC50 3D7,>8.9
same,Selectivity Index (W2) =CC50/IC50,[2]; CC50 HUVEC / IC50 W2,>5.3
same,"CC50 ± SD, HUVEC Cells",HUVEC cells,>100 nM
